Test results: patent US20050288283A1, “Topical formulations for treating allergic diseases” (Alcon, Inc., priority 2004, published 2005)
Structures can show the parent of a compound that is named as a salt.

Tests used:
[1] = system: human conjunctival tissue mast cells; assay: Histamine release from human conjunctival mast cells (anti-human IgE challenge); format: cell-based; conditions: Mast cell; goat-anti-human IgE 10 μg/mL challenge 15 min, after 1 or 15 minutes drug treatment; read-out: Human Conjunctiva Mast Cell Histamine Release IC50
Description: Methods detailing preparation of monodispersed human conjunctival tissue mast cell and mediator release studies with these cells have been described (Miller et al. 1996). Briefly, human conjunctival tissue mast cells were isolated from post-mortem tissue donors obtained within 8 hours of death by various eye banks and transported in Optisol® corneal preservation medium. Tissues were enzymatically digested by repeated exposure (30 min. at 37° C.) to collagenase and hyaluronidase (2× with 200 U each/gm tissue, then 2-4× with 2000 U each/gm tissue) in Tyrode's buffer containing 0.1% gelatin. Each digestion mixture was filtered over Nitex® cloth (100 μm mesh) and washed with an equal volume of buffer. Filtrates were centrifuged at 825×g (7 min). Pellets were resuspended in buffer then combined for enrichment over a […] Percoll® cushion. The enriched pellet was washed and resuspended in supplemented RPMI 1640 medium for equilibration at 37° C.
Cells were harvested from the culture plate and counted for viability (trypan blue exclusion) and mast cell number (toluidine blue 0). Mast cells (5000/tube; 1 mL final volume) were challenged (37° C.) for 15 min with goat-anti-human IgE (10 μg/mL) following treatment (1 or 15 minutes; 37° C.) with test drug or Tyrode's buffer. Total and non-specific release controls were exposed to 0.1% Triton X-100 and goat IgG (10 μg/mL), respectively. The reaction was terminated by centrifugation (500×g, 4° C., 10 min). Supernatants were stored at −20° C. until analyzed for histamine content by R I A Miller, S. et al., Ocular Immunology and Inflammation 4(1): 39-49 (1996).

H1 histamine receptor = target: T1, H1 histamine receptor (Cavia porcellus, UniProt P31389); assay: Histamine receptor radioligand binding in washed rodent brain homogenates ([3H]pyrilamine); set-up: species or system guinea pig; conditions: 23° C. for 40 min
T1 construct: tissue Pel-Freez (Rogers, Ark.); host or cells: guinea pig forebrain homogenate (washed membranes)
T1 sequence (P31389 whole entry): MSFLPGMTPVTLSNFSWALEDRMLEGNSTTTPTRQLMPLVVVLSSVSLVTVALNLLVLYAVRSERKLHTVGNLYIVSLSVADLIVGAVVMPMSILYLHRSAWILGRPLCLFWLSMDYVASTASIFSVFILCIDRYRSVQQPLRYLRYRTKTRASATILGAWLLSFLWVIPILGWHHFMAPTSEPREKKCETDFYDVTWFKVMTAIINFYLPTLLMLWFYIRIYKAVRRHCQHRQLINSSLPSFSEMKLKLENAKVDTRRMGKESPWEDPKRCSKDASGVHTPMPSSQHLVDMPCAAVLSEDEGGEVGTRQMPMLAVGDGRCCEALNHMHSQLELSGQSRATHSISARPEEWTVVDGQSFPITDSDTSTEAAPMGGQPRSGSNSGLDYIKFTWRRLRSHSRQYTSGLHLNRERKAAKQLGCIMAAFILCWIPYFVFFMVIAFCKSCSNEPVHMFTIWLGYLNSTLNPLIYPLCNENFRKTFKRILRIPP
Description: Histamine receptor binding was conducted in washed rodent brain homogenates. Briefly, guinea pig forebrains (for H1 and H2 receptors) and rat forebrains (for H3 receptor), obtained from Pel-Freez (Rogers, Ark.) were homogenized in 20 ml ice-cold phosphate buffered saline (PBS; pH 7.4) using a Polytron tissue disrupter (setting 5-7 for 10 sec) and centrifuged at 40,000 g for 15 min on a Beckman J2-MC centrifuge. The supernatants were discarded, the tissue pellets re-homogenized in fresh PBS buffer and centrifuged as described above. The final pellets were dispersed in 50 mM sodium potassium phosphate buffer (pH 7.5) and kept frozen at −40° C. until used in the binding assays.
The H1 histamine receptor binding assays were performed according to previously published methods with minor modifications (Chang, R. S. L., Tran, V. T., and Snyder, S. H. J. Neurochem., 32:1653-1663, 1979, Hill, S. J., Young, J. M., and Marrian, D. H. Nature, 270:361-363, 1977, Gajtkowski, G. A., Norris, D. B., Rising, T. J., and Wood, T. P. Nature, 304:65-67,1983, Korte, A., Myers, J., Shih, N.-Y., Egan, R. W., and Clark, M. A. Biochem. Biophys. Res. Comm., 168:979-986, 1990 . Briefly, 50 μl of [3H]pyrilamine (1-2 nM); 24 Ci/mmol from NEN, Boston, Mass.), [3H]tiotidine (4-5 nM; 87 Ci/mmol from NEN, Boston, Mass.) or [3H]N-methyl histamine (1-2 nM; 84 Ci/mmol from NEN, Boston, Mass.) were incubated with 200 μl of 2.5-4.0 mg/ml of frozen-thawed brain homogenates in the presence or absence of unlabeled test compounds (50 μl; 10 pM-100 μM) in a total volume of 500 μl in polypropylene tubes. The non-specific binding was determined with 5 mM histamine. Drug dilutions and dispensing of assay components were performed using a computer-controlled automated system (Biomek; Beckman, Fullerton, Calif.). The assays were conducted at 23° C. for 40 min and then terminated by rapid filtration over Whatman GF/B glass fiber filters presoaked in 0.3% polyethyleneimine using a Tomtec cell harvester (Gaithersburg, Md.). The assay tubes were rinsed with 2×6 ml of ice-cold 50 mM TrisHCl buffer (pH 7.4). The filter-bound radioactivity was determined on a Wallac Beta-plate (Gaithersburg, Md.) solid scintillation counter at 40-50% efficiency. The competition binding data were analyzed using an iterative curve-fitting computer program as previously described Michel, A. D. and Whiting, R. L. Brit. J. Pharmacol., 83:460p, 1984, Sharif, N. A., Wong, E. H. F., Loury, D., Stefanich, E., Eglen, R. M., Michel, A. D., and Whiting, R. L. Brit. J. Pharmacol., 102:919-925, 1991,. The drug affinities (dissociation constants, Kis) were calculated according to the Cheng-Prussof equation (Cheng, Y.-C. and Prusoff, W. H. Biochem. Pharmacol., 22:3099-3018, 1973 ): Ki=IC50/(1+L/Kd) where IC50 is the concentration of the drug needed to produce 50% inhibition of the receptor binding, L is the radioligand concentration in the assay and Kd is the dissociation constant of the radioligand.

[2] = system: Histamine induced vascular permeability in guinea pig conjunctiva; assay: Histamine induced vascular permeability in guinea pig conjunctiva; format: in vivo; conditions: topical 20 μl onto eye, 30 min before subconjunctival histamine
Description: Male Dunkin Hartley Viral Antibody Free out bread guinea pigs (Charles River Labs, Portage, Mich.), 250-350 grams, (6/group) were injected intravenously (i.v.) via the marginal ear vein with 1.0 ml of Evans Blue dye (1.0 mg/ml). Forty-five (45) min post dye injection, 20 μl of test compound or vehicle was applied topically onto one eye of each experimental animal. Thirty (30) min following topical drug application, guinea pigs were anesthetized and challenged subconjunctivally with histamine (300 ng/10 μl). Responses were quantitated as previously described by Yanni, J. M., Weimer, L. K., Glaser, R. K., Lang, L. S., Robertson, S. M., and Spellman, J. M. Int. Arch. Allergy Immunol. 101:102-106, 1993

[3] = % inhibition at concentration 0.1%
[4] = % inhibition at concentration 0.01%

| SMILES | IC50 [1] | IC50 (H1 histamine receptor) | also measured |
| --- | --- | --- | --- |
| CN(C)CC/C=C1/c2ccccc2COc2ccc(CCNS(C)(=O)=O)cc21 [Example 9, N-{2-[11-(3-Dimethylaminoprop-(Z)-ylidene)-6,11-dihydrodibenzo[b,e]-oxepin-2-yl]ethyl}-methanesulfonamide] | 15 µM | 0.127 µM | Histamine Induced Vascular Permeability ED50 or [Concentration] and (% inhibition) ([2]; % inhibition at concentration 0.018%): 0.018% (74%) |
| CN(C)CC/C=C1/c2ccccc2COc2ccc(CC(N)=O)cc21 [Example 3, 2-[11Z-(3-Dimethylaminopropylidene)-6,11-dihydrodibenzo[b,e]oxepin-2-yl]acetamide] | 480 µM | 0.0022 µM | Histamine Induced Vascular Permeability ED50 or [Concentration] and (% inhibition) ([2]; % inhibition at concentration printed as 0.018 (no % sign)): 0.018 (59%) |
| CN(C)CC/C=C1/c2ccccc2COc2ccc(CC(=O)N(C)C)cc21 [Example 6, 2-[11Z-(3-Dimethylaminopropylidene)-6,11-dihydrodibenzo[b,e]oxepin-2-yl]-N,N-dimethylacetamide] | 400 µM | 0.0026 µM | Histamine Induced Vascular Permeability ED50 or [Concentration] and (% inhibition) [2, 4]: 0.01% (56%) |
| CCN(CC)CCC1CCN(CCc2ccc3c(c2)/C(=C\CCN(C)C)c2ccccc2CO3)CC1 (as salt: fumaric acid salt) [Example 7, {3-[2-{2-[4-(2-Diethylamino-ethyl)-piperidin-1-yl]-ethyl}-6H-6,11-dibenz[b,e]oxepin-(11Z)-ylidene]-propyl}-dimethylamine fumaric acid salt] | – | – | melting point: 65 to 67 °C |
| CN(C)CC/C=C1/c2ccccc2COc2ccc(CCN)cc21 [Example 8, {3-[2-(2-Aminoethyl)-6H-dibenzo[b,e]oxepin-11-ylidene]propyl}-dimethylamine] | 2 µM | – | Histamine Induced Vascular Permeability ED50 or [Concentration] and (% inhibition) [2, 3]: 0.1% (32%) |

More lines, main results first:

| IC50 [1] | IC50 (H1 histamine receptor) | SMILES | also measured |
| --- | --- | --- | --- |
| 61 µM | – | CN(C)CC/C=C1/c2ccccc2COc2ccc(CC(=O)NC[C@@H]3CCCO3)cc21 [Example 1, (S)-2-{11-[3-Dimethylamino-prop-(Z)-ylidene]-6,11-dihydro-dibenz[b,e]-oxepin-2-yl}-N-tetrahydro-furan-2-ylmethyl)acetamide fumaric acid salt] | – |
| 220 µM | 0.0026 µM | CNC(=O)Cc1ccc2c(c1)/C(=C\CCN(C)C)c1ccccc1CO2 [Example 4, 2-[11Z-(3-Dimethylaminopropylidene)-6,11-dihydrodibenzo[b,e]oxepin-2-yl]-N-methylacetamide] | Histamine Induced Vascular Permeability ED50 or [Concentration] and (% inhibition) [2, 3]: 0.1% (55%) |
| 770 µM | 0.0013 µM | CN(C)CC/C=C1/c2ccccc2COc2ccc(CC(=O)NCCO)cc21 [Example 5, 2-[11Z-(3-Dimethylaminopropylidene)-6,11-dihydrodibenzo[b,e]oxepin-2-yl]-N-(2-hydroxyethyl)acetamide] | Histamine Induced Vascular Permeability ED50 or [Concentration] and (% inhibition) [2, 4]: 0.01% (43%) |
| 220 µM | – | CN1CCC(=C2c3ccccc3COc3ccc(OCC(=O)O)cc32)CC1 [Example 11, [11-(1-Methylpiperidin-4-ylidene)-6,11-dihydrodibenzo[b,e]oxepin-2-yloxy]acetic acid hydrochloride] | – |
| 2 µM | – | CCN(CC)CCC1CCN(C(=O)Cc2ccc3c(c2)/C(=C\CCN(C)C)c2ccccc2CO3)CC1 [Example 2, 1-[4-(2-Diethylamino-ethyl)-piperidin-1-yl]-2-{11-[3-dimethylamino-prop-(Z)-ylidene]-6,11-dihydro-dibenz[b,e]oxepin-2-yl}-ethanone fumaric acid salt] | – |
| 13 µM | 0.054 µM | CC(=O)NCCc1ccc2c(c1)/C(=C\CCN(C)C)c1ccccc1CO2 [Example 10, N-[2-[11-(3-Dimethylaminoprop-(Z)-ylidene)-6,11-dihydrodibenzo[b,e]-oxepin-2-yl]ethyl}-acetamide] | Histamine Induced Vascular Permeability ED50 or [Concentration] and (% inhibition) [2, 3]: 0.1% (41%) |
